In patent US20230115350A1 (Cedilla Therapeutics, Inc., priority 2021, published 2023):

Legend:
[1] = biological target: TEAD1 protein (YAP Binding Domain) (Homo sapiens, UniProt P28347); test: TEAD1 lipid pocket compound displacement assay (TR-FRET, Cy5-probe); conditions: 60 minutes incubation at room temperature; TR-FRET 665 nm/620 nm; read-out: CDA IC50
Procedure, shortened: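 His-tagged TEAD1 YAP-binding domain pre-mixed with a Cy5-labelled lipid-pocket probe and Tb-anti-His antibody; compounds incubated with the complex 60 min at room temperature. TR-FRET read at 665/620 nm; IC50 from 4-parameter non-linear fit of probe displacement.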

NCI-H226 = test: 72H TEAD Proliferation Assay (Cell Titer-Glo 2.0); assay type: cell-based; conditions: Homo sapiens, NCI-H226, 72 h, CTG 2.0, cell line not given
Method: The effect of TEAD inhibition on cell proliferation was assayed using Cell Titer Glo (CTG) 2.0 to measure response in mesothelioma cell lines NCI-H226 (ATCC, #CRL-5826) and NCI-H28 (ATCC, #CRL-5820).
The 72H TEAD Proliferation assay utilizes Cell Titer-Glo 2.0 (Promega, #G9243) to measure the proliferation of cells in the presence or absence of compound. Cell Titer-Glo 2.0 determines the amount of viable cells by quantifying ATP (an indication of metabolically active cells). It utilizes the conversion of Luciferin to Oxyluciferin and a luminescent signal with the use of ATP to report the quantity of viable cells in culture. Within cells that are continually growing, ATP is being synthesized to meet their metabolic demands, meanwhile the opposite is true for cells that are dying or slowing down their proliferation and either no longer using ATP or are using less, respectively. The NF2-deficient NCI-H226 has been genetically validated as a cell line that is sensitive to TEAD inhibition. The NF2-wild type NCI-H28 has been genetically validated as a cell line that is not sensitive to TEAD inhibition and grows independently of TEAD activity.
Compounds were screened against the responsive NCI-H226 cell line to assess the compounds' ability to inhibit TEAD and cell growth. Compounds were also screened against the non-responsive NCI-H28 cell line to ascertain whether the inhibition of cell growth was due to inhibition of the target TEAD or whether the inhibition was due to off-target cytotoxicity.
1) Assay ready plates (ARPs) were prepared by Echo acoustic liquid handler. For each compound, duplicate of 10-point half-log dilution series were dispensed in a 384-well microplate (Corning 3571).
5) NCI-H226 or NCI-H28 cells were harvested from culture in Assay Medium 1 and the multidrop Combi reagent dispenser was used to seed cells at 500 cells per 50 ul in each well of the ARPs and one Corning 3571 plate without compounds for Time 0 (TO) readout.
6) The TO plate was incubated for 2 hours at 37° C. with 5% CO2 to allow cells to settle, then the CTG Assay was performed.
7) All ARPs were incubated for 72 hours at 37° C. with 5% CO2, then the CTG Assay was performed for Time 72H (T72) readout.
8) CTG Assay: Bravo liquid handler (Agilent) was used to add 25 ul of CTG 2.0 to all columns of the plate except for Column 24, which was used to subtract out the background. After CTG addition, plates were placed on shaker at 800 RPM for 15 minutes at room temperature and kept in the dark. Luminescence was measured using EnVision multilabel plate reader with ultra-sensitive detection module.
9) Data Analysis: First background luminescence (no CTG wells) was subtracted from luminescence reading of all wells, then TO luminescence was subtracted from T72 luminescence. To compare anti-proliferative effect of compounds, GI50 was obtained by fitting dose response curves with nonlinear regression curve fit.

Sequence of TEAD1 protein (YAP Binding Domain) (P28347 209-426 limits assumed): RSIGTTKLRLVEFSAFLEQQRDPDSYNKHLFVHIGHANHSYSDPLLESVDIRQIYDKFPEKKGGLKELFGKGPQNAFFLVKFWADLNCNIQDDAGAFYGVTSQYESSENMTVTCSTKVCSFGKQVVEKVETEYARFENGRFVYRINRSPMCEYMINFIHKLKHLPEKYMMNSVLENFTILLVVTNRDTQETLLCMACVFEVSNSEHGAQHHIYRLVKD

## C=CC(=O)Nc1ccc(Oc2cccc(C)c2)c(F)c1 [Compound 113, N-(3-fluoro-4-(m-tolyloxy)phenyl)acrylamide]
[1]
  IC50: ≤ 250 nM
NCI-H226
  GI50: 1000 to 3000 nM

## C=CC(=O)Nc1ccc(OCC2CCC(F)(F)CC2)c(C#N)c1 [Compound 50, N-(3-cyano-4-((4,4-difluorocyclohexyl)methoxy)phenyl)acrylamide]
[1]
  IC50: ≤ 250 nM
NCI-H226
  GI50: ≤ 250 nM

## C=CC(=O)Nc1ccc(C2COc3ccccc3N2)c(F)c1 (stereo not drawn) [Compound 121, N-(4-(3,4-dihydro-2H-benzo[b][1,4]oxazin-3-yl)-3-fluorophenyl)acrylamide]
[1]
  IC50: 500 to 2000 nM
NCI-H226
  GI50: > 3000 nM

## C=CC(=O)Nc1ccc(OCc2cccc(C(F)(F)F)n2)c(F)c1 [Compound 115, N-(3-fluoro-4-((6-(trifluoromethyl)pyridin-2-yl)methoxy)phenyl)acrylamide]
[1]
  IC50: 250 to 500 nM
NCI-H226
  GI50: ≤ 250 nM

## C=CC(=O)Nc1ccc(OCc2cccc(F)c2Cl)c(F)c1 [Compound 83, N-(4-((2-chloro-3-fluorobenzyl)oxy)-3-fluorophenyl)acrylamide]
[1]
  IC50: ≤ 250 nM
NCI-H226
  GI50: 250 to 1000 nM

## C=CC(=O)Nc1ccc(OCC2CCC(F)(F)CC2)c2[nH]cnc12 [Compound 22, N-(7-((4,4-difluorocyclohexyl)methoxy)-1H-benzo[d]imidazol-4-yl)acrylamide]
[1]
  IC50: 500 to 2000 nM
NCI-H226
  GI50: 250 to 1000 nM

## C=CC(=O)Nc1ccc(OCC2CCCCC2)c(F)c1 [Compound 55, N-(4-(cyclohexylmethoxy)-3-fluorophenyl)acrylamide]
[1]
  IC50: ≤ 250 nM
NCI-H226
  GI50: 250 to 1000 nM

## C=C=CC(=O)Nc1ccc(OCc2cccc(F)c2)c(F)c1 [Compound 126]
[1]
  IC50: ≤ 250 nM
NCI-H226
  GI50: 1000 to 3000 nM

## C=CC(=O)Nc1ccc(NCc2cccc(F)c2)c(F)c1 [Compound 101, N-(3-fluoro-4-((3-fluorobenzyl)amino)phenyl)acrylamide]
[1]
  IC50: 500 to 2000 nM
NCI-H226
  GI50: 1000 to 3000 nM

## C=CC(=O)Nc1ccc(OCc2cnc(C(F)(F)F)nc2)c(F)c1 [Compound 98, N-(3-fluoro-4-((2-(trifluoromethyl)pyrimidin-5-yl)methoxy)phenyl)acrylamide]
[1]
  IC50: > 2000 nM
NCI-H226
  GI50: 1000 to 3000 nM

## C=CC(=O)Nc1ccc2oc(CCCC(C)C)nc2c1F [Compound 141, N-(4-fluoro-2-(4-methylpentyl)benzo[d]oxazol-5-yl)acrylamide]
[1]
  IC50: 250 to 500 nM
NCI-H226
  GI50: 250 to 1000 nM

## C=CC(=O)Nc1ccc(OCc2cccc(F)c2)c(C)c1 [Compound 51, N-(4-((3-fluorobenzyl)oxy)-3-methylphenyl)acrylamide]
[1]
  IC50: 250 to 500 nM
NCI-H226
  GI50: > 3000 nM

## C=CC(=O)Nc1ccc(OCc2cncc(C(F)(F)F)c2)c(C#N)c1 [Compound 41, N-(3-cyano-4-((5-(trifluoromethyl)pyridin-3-yl)methoxy)phenyl)acrylamide]
[1]
  IC50: > 2000 nM
NCI-H226
  GI50: > 3000 nM

## C=CC(=O)Nc1ccc(OCC2CCC(F)(F)CC2)cc1C#N [Compound 20, N-(2-cyano-4-((4,4-difluorocyclohexyl)methoxy)phenyl)acrylamide]
[1]
  IC50: ≤ 250 nM
NCI-H226
  GI50: 250 to 1000 nM

## C=CC(=O)Nc1ccc(C2COc3ccccc3O2)c(F)c1 (stereo not drawn) [Compound 122, N-(4-(2,3-dihydrobenzo[b][1,4]dioxin-2-yl)-3-fluorophenyl)acrylamide]
[1]
  IC50: ≤ 250 nM
NCI-H226
  GI50: > 3000 nM

## C=CC(=O)Nc1ccc(COc2cccc(F)c2)c(F)c1 [Compound 28, N-(3-fluoro-4-((3-fluorophenoxy)methyl)phenyl)acrylamide]
[1]
  IC50: 250 to 500 nM
NCI-H226
  GI50: 250 to 1000 nM

## C=CC(=O)Nc1cc2nc(CC3CC3C)oc2cc1F (stereo not drawn) [Compound 145, N-(6-fluoro-2-((2-methylcyclopropyl)methyl)benzo[d]oxazol-5-yl)acrylamide]
[1]
  IC50: 250 to 500 nM
NCI-H226
  GI50: ≤ 250 nM

## C=CC(=O)Nc1ccc(OCC2CCCC(F)(F)C2)c(F)c1 (stereo not drawn) [Compound 24, N-(4-((3,3-difluorocyclohexyl)methoxy)-3-fluorophenyl)acrylamide]
[1]
  IC50: ≤ 250 nM
NCI-H226
  GI50: ≤ 250 nM
